Holding throughout (experiment): NCI tumour cell line growth inhibition, 48 h
The subject of assay [1] is U251 CNS.
Assay [2] deals with HCT-116 colon.
Assay [3] concerns HOP-62 NSCLC.
Assay [4] concerns A498 renal.
Assay [5] deals with UACC-257 melanoma.
The test system of assay [6] is MDA-MB-435.
Assay [7] deals with TK-10 renal.
The test system of assay [8] is SF-539 CNS.
In assay [9] the test system is RXF 393 renal.
For assay [10], the system named is NCI-H460 lung.

“And” between values parts separate entries of the source, which are not always exact repeats. Equal values may be shown once.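 1) Cells in 96-well plates. 2) Compound, 48 h, 5 concentrations. 3) Linear interpolation between surrounding doses. 4) Unreached endpoint = highest concentration. GI50 marks 50% less growth. Definition used: TGI = concentration required for complete inhibition of growth.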

`C[C@]12CC[C@H]3[C@@H](CCC4=CC(=O)CC[C@@]43C)[C@@H]1CC[C@@H]2C(=O)COS(=O)(=O)c1ccc(Br)cc1`: the TGI was 26.2 µM in assay [1]; 22700 nM in assay [2]; 46.6 µM in [3]; 37.2 µM in assay [4]; 31.9 µM in assay [5]; 32800 nM in [6]. The TGI in assay [7] was 34.5 µM; in assay [8], > 60.7 µM; in assay [9] it was > 50.8 µM; in [10], 22.2 µM.
On to `O=C(c1ccco1)c1c(C(F)(F)F)nc2ccc(C(F)(F)F)cc2[n+]1[O-]`, for which the GI50 in assay [1] is 25900 nM; in assay [2], 29300 nM; in assay [3], 19800 nM; in [4], 42400 nM; in assay [5], > 52600 nM; in [6] it was > 81600 nM. Further, the GI50 in [7] is 23900 nM; in [8] it was 18300 nM; in [9], 26500 nM; in assay [10], > 63200 nM. Moreover, the TGI in assay [1] is 61.5 µM; in [2] it was > 100000 nM; in [3], 46.3 µM; in assay [4] it was > 79.7 µM; in assay [5] it was > 85.9 µM; in assay [6], > 100000 nM. The TGI in assay [7] is 50 µM; in assay [8], 34.5 µM; in [9], 62.2 µM; in [10] it was > 100 µM.
For `O=C1CCCCC=C1C[N+](=O)[O-]`, the GI50 in assay [1] was 33900 nM; in [2], 17000 nM; in assay [3], 15100 nM; in assay [4], > 100000 nM; in [5], 28600 nM; in [6], 20600 nM. For the same molecule, the GI50 is 24700 nM in assay [7], 27700 nM in assay [8], 14700 nM in [9] and 34300 nM in [10]. The TGI in assay [1] is > 100 µM; in assay [2], 50800 nM; in assay [3] it was 45.6 µM; in [4], > 100 µM; in assay [5], > 100 µM; in assay [6] it was 41200 nM. The TGI is 54.8 µM in assay [7], 74.2 µM in [8], 35.2 µM in assay [9] and > 100 µM in [10].
Turning to `CCN(Cc1ccccc1Cl)c1ccc(CO)c(Cl)c1`, the GI50 was 943 nM in [1]; 131 nM in assay [2]; 2460 nM in assay [3]; < 21.9 nM in assay [4]; 94 nM in [5]; 9190 nM in [6]. Besides, the GI50 in assay [7] is < 33.4 nM; in [8] it was 15000 nM; in [9], 3750 nM; in assay [10] it was 296 nM. Further, the TGI worked out at 15 µM in [1]; 11800 nM in assay [2]; 16.1 µM in assay [3]; 0.0672 µM in [4]; 0.461 µM in assay [5]; 23900 nM in assay [6]. Besides, the TGI in assay [7] was 0.257 µM; in [8] it was 29 µM; in [9], 20 µM; in [10], 11.1 µM.
`O=S1(=O)NC2CCC3NS(=O)(=O)NC4CCC(N1)N4S(=O)(=O)N23` (stereo unspecified): the TGI in assay [1] was > 100 µM; in [2], > 100000 nM; in assay [3], > 100 µM; in [4], > 100 µM; in [5] it was > 100 µM; in assay [6], > 100000 nM. Moreover, the TGI in [7], in assay [8], in [9] and in [10] was > 100 µM throughout.
As for `CCOC(=O)c1ccc2c(c1)nc(/C=C/c1ccc(Cl)cc1)n2-c1cc(C(C)(C)C)[nH]n1`, the GI50 is 3280 nM in assay [1]; 3420 nM in [2]; 5240 nM in [3]; 3030 nM in [4]; 6840 nM in assay [5]; 10500 nM in [6]. Moreover, the GI50 was 3110 nM in assay [7], 2090 nM in assay [8], 2210 nM in [9] and 6280 nM in [10]. Besides, the TGI in assay [1] is 13.2 µM; in assay [2], 12400 nM; in assay [3], 28.8 µM; in [4], 41.7 µM; in assay [5], > 100 µM; in [6], > 100000 nM. For the same molecule, the TGI was 7.2 µM in assay [7], 5.09 µM in [8], 6.48 µM in assay [9] and > 100 µM in assay [10].
For the molecule `C=C1CC[C@@H]2[C@](C)(COC(C)=O)[C@H](OC(C)=O)CC[C@@]2(C)[C@@H]1CC(Nc1ccc(S(=O)(=O)Nc2cc(C)on2)cc1)C1=CCOC1=O` (stereo partly specified), the GI50 in assay [1] is 1890 nM; in [2], 1120 nM; in [3] it was 8880 nM; in assay [4], 7690 nM; in assay [5], 2950 nM; in assay [6], 1740 nM. In addition, the GI50 in assay [7] is 3040 nM; in assay [8], 1590 nM; in assay [9] it was 2050 nM; in assay [10], 2350 nM. Further, the TGI in assay [1] stood at 3.4 µM; in assay [2] it was 2390 nM; in [3] it was 22.9 µM; in [4] it was 20.3 µM; in [5] it was 6.19 µM; in assay [6] it was 4370 nM. In addition, the TGI in [7] amounted to 7.11 µM; in assay [8], 3.06 µM; in assay [9], 3.84 µM; in assay [10], 5.7 µM.
With `Cc1cc2nc3ccc(=[N+](C)C)cc-3sc2cc1N`, the GI50 in assay [1] is 357 nM and 381 nM; in assay [2] it was 226 nM and 232 nM; in assay [3] it was 1040 nM and 1550 nM; in assay [4], 1330 nM and 1930 nM; in assay [5], 501 nM and 1950 nM; in [6], 209 nM and 256 nM. For the same molecule, the GI50 is 2650 nM and 2750 nM in assay [7]; 343 nM and 349 nM in assay [8]; 1700 nM and 1940 nM in assay [9]; 457 nM and 1560 nM in assay [10]. In addition, the TGI in assay [1] is 2.55 µM and 18.9 µM and 2.11 µM; in assay [2], 1200 nM and 5030 nM and 980 nM; in [3], 3.2 µM and 28.9 µM and 5.72 µM; in assay [4] it was 14.2 µM and 47.2 µM and 12 µM; in assay [5], 3.78 µM and 5.85 µM and 10.1 µM; in [6] it was 460 nM and 2180 nM and 665 nM. Besides, the TGI was 7.01 µM and 36.8 µM and 8.19 µM in assay [7]; 1.64 µM and 8.97 µM and 1.55 µM in [8]; 6.93 µM and 22.2 µM and 8.17 µM in [9]; 7.56 µM and 24.5 µM and 11.8 µM in assay [10].
`Nc1ccccc1NC(=O)c1ccc(CN2CCC/C(=C\c3ccccn3)C2=O)cc1`: the GI50 in assay [1] was 1830 nM; in assay [2], 381 nM; in assay [3], 2500 nM; in assay [4], 1090 nM; in [5] it was 1150 nM; in assay [6], 357 nM. The GI50 in [7] is 107 nM; in [8], 1580 nM; in [9], 755 nM; in [10] it was 1650 nM. Besides, the TGI was > 100 µM in [1]; > 100000 nM in assay [2]; > 100 µM in assay [3]; 3.47 µM in assay [4]; 14.8 µM in [5]; 1770 nM in assay [6]. For the same molecule, the TGI was 4.18 µM in assay [7], > 100 µM in [8], 3.48 µM in assay [9] and > 100 µM in assay [10].
As for `C/C(=N\NC(=S)N1CCN(C2CCCCCC2)CC1)c1ccccn1`, the GI50 is < 1 nM in assay [1]; < 1 nM in assay [2]; 19.8 nM and < 15.6 nM in assay [3]; < 1 nM in assay [5]; 420 nM in assay [7]; 29.4 nM in [8]. Moreover, the GI50 in assay [9] is 2450 nM. Moreover, the TGI in [1] was 3 µM and 2.1 µM; in [2], 1650 nM; in assay [3] it was 1.41 µM; in assay [4], 3.76 µM; in assay [5], 1.21 µM; in assay [6], 2000 nM. The TGI was 3.34 µM in assay [7]; 2.5 µM and 2.01 µM in assay [8]; 2.5 µM in assay [9]; 1.45 µM in assay [10].
Consider `O=C1C(Nc2ccc(Br)cc2)=C(I)C(=O)c2ncccc21`, for which the GI50 in assay [1] was 1320 nM; in assay [2], 336 nM; in assay [3], 2310 nM; in [4] it was 1690 nM; in assay [5], 835 nM; in assay [6], 911 nM. Also, the GI50 in assay [7] is 3540 nM; in assay [8], 1030 nM; in assay [9] it was 909 nM; in assay [10] it was 1420 nM. Besides, the TGI in assay [1] is 3.98 µM; in assay [2] it was 1080 nM; in assay [3], 8.31 µM; in assay [4], 8.82 µM; in [5], 1.95 µM; in assay [6], 1720 nM. Besides, the TGI came to 9.74 µM in assay [7], 2.49 µM in [8], 1.73 µM in assay [9] and 5.01 µM in assay [10].
Consider `C=C1COC(O)(C2OCOC(C3CC(=O)NC(=O)C3)C2O)C1C` (stereo unspecified), for which the GI50 is 2.75 nM in [1]; 2.88 nM in assay [2]; 2.77 nM in assay [3]; 4 nM and 12.6 nM in assay [5]; 4.81 nM in assay [6]; 4.56 nM in assay [7]. Also, the results for the GI50 in assay [8], in assay [9] and in assay [10] were 1.65 nM, 1.34 nM and 10.7 nM, respectively. Moreover, the TGI was 0.0376 µM and 0.0739 µM in assay [1]; 33.7 nM and 33.5 nM in assay [2]; 0.0357 µM and 0.0382 µM in [3]; 0.0052 µM and 0.00554 µM in assay [4]; 0.0278 µM and 0.0453 µM in assay [5]; 37 nM in assay [6]. In addition, the TGI is 0.0539 µM and 0.0498 µM in assay [7]; 0.0064 µM and 0.00602 µM in assay [8]; 0.00759 µM and 0.0177 µM and 0.0104 µM in [9]; 0.18 µM and 0.172 µM in assay [10].

The values above are taken from PubChem BioAssay (NCI).
